Laboratory results reported in patent US20070142306A1, “Strontium-based complexes, pharmaceutical compositions and dietetic products” (MEDESIS PHARMA SA, priority 2003, published 2007).
“And” between values parts separate entries of the source, which are not always exact repeats. Equal values may be shown once.

Experiments:
[1] = test system: osteoclast; settings: cited from earlier work
[2] = test system: animal; settings: cited from earlier work
[3] = test system: humans; settings: in humans; cited from earlier work
[4] = test system: osteoblast; settings: cited from earlier work
[5] = test system: rat model; settings: administration for 8 weeks; cited from earlier work
[6] = test system: postmenopausal women; settings: 2 mg per day, two years; cited from earlier work
[7] = test system: female Wistar rats; test: Femoral head (epiphyseal) diameter / bone growth after 21 days rectal treatment; type: in vivo, rat
Method: (§1) Administration to female Wistar rats weighing 200 g.
Number of animals per group: 6 and 8.
Text complex: NP05 (composition produced according to the invention, in which only the quantity of strontium varies).
(§2) Volume of administration: 2 ml/kg.
(§3) Route of administration: Rectal route.
(§4) Dose frequency: Once a day—every 24 hours.
(§5) Treatment duration: 21 days.
(§6) The animals were sacrificed and the femoral bones were removed, cleaned of their tendinous and muscular attachments, then frozen.
The femoral epiphyseal diameter was measured.

[8] = Assay of strontium in femoral bones by atomic absorption spectrometry; type: in vivo, rat; settings: 3 weeks treatment, 68.2 mg/kg/d
Method: as §1, §2, §3, §4, §5, §6
Strontium was then assayed in the bones by atomic absorption spectrometry.
The assay of strontium in bone was carried out.

Row | SMILES | osteoclast multiplication [1] | dose required for therapeutic activity in animal studies ([2]; as strontium ranelate, corresponding to 68.2 mg of strontium metal) | dose causing toxic effects (osteomalacic bone lysis) ([2]; ranelate dose, four times the active dose) | amount necessary to obtain therapeutic activity [3] | osteoblast proliferation [4] | minimum dose stimulating bone growth [5] | bone alkaline phosphatase (marker of bone formation) [6] | bone mineral density in the lumbar spine [6] | marker of bone resorption [6] | effect on bone growth ([7]; 3 weeks treatment, compared with control animals (NP05 also with the strontium chloride group)) | Diameter of femoral head, Mean ([7]; group mean, 68.2 mg/kg strontium metal, rectal, 21 days) | Diameter of femoral head, Femur 1 ([7]; individual rats, 68.2 mg/kg strontium metal, rectal, once a day, 21 days) | Diameter of femoral head, Femur 2 ([7]; individual rats, 68.2 mg/kg strontium metal, rectal, once a day, 21 days, 68.2 mg/kg) | strontium incorporation in bone compared with the controls [8]
1 | N#Cc1c(N(CC(=O)[O-])CC(=O)[O-])sc(C(=O)[O-])c1CC(=O)[O-].[Sr+2].[Sr+2] [strontium ranelate] | inhibition | 200 mg per day | above 800 mg per day | 2 g/day | stimulation | 68.2 mg of strontium (metal) | significantly increased | significant increase | decreased |  |  |  |  | 
2 | [Cl-].[Cl-].[Sr+2] [Strontium chloride, strontium chloride] | inhibition |  |  |  | stimulation | 68.2 mg of strontium (metal) |  |  |  | no effect | 4.01 millimeters | 4 millimeters | 4 millimeters (7×) and 4.1 millimeters | 4
